Assay results reported in US12559463B2, “Crystalline forms of a JAK2 inhibitor” (Impact Biomedicines, Inc., priority 2019, dated 2026).
Read-outs that look alike come from different tables or passages of the source.

Columns and labels:
[1] = additive used in the salt screen, cited from earlier work
[2] = pKa of basic sites / additives; assay type: physicochemical; settings: two basic sites for salt formation
Excerpt: Fifty-three counterions and stoichiometric combinations were selected. Table 1 provides a summary of the additives, pKa values, method of dosing and equivalents dosed for each additive.

SMILES	pKa ([1]; first pKa value)	pKa ([1]; second pKa value)	pKa [2]	pKa ([2]; read-out: pKa)
CC1(C(=O)O)CCC(C(=O)O)C1(C)C (stereo not shown) [Camphoric acid]	4.7	5.8		
CC1(C)C2CCC1(CS(=O)(=O)O)C(=O)C2 (stereo not shown) [Camphor-10-sulfonic acid]	−2.2			
O=C(O)[C@@H](O)c1ccccc1 [L-Mandelic acid]	3.4			
O=C(O)C(O)c1ccccc1 (racemic) [DL-Mandelic acid]	3.4			
Cc1cnc(Nc2ccc(OCCN3CCCC3)cc2)nc1Nc1cccc(S(=O)(=O)NC(C)(C)C)c1 [Compound 1, N-tert-butyl-3-[(5-methyl-2-{[4-(2-pyrrolidin-1-ylethoxy)phenyl]amino}pyrimidin-4-yl)amino]benzenesulfonamide]			6.4	9.3
